Data on 23 molecules can be found in patent US20260317319A1, “NOVEL ERGOLINES AND METHODS OF TREATING MOOD DISORDERS” (Gilgamesh Pharma Inc., priority 2023, published 2026).

Read-outs that look alike come from different tables or passages of the source.

One data set has as its target 5-HT2A receptor (Homo sapiens, UniProt P28223). Description: biochemical. In kind it is binding. Conditions: [3H]ketanserin 1 nM; HEK293 stable cell line; 1 h, 25 °C. Further details: expressed in transfected cells; host or cells: HEK293, stably transfected. The method, then:
Affinity of the test compounds for the 5-HT2A receptor was determined in radioligand binding experiments with [^3H]ketanserin by WuXi AppTec (Hong Kong) Limited, using methods adapted from the literature and under conditions described in Table 1.

The nature of data set [1]: in vitro. Conditions: HLM 0.50 mg/mL, NADPH 1 mM, 1 μM compound, pH 7.4, 37° C., 60 min; for microsomal CLint / half-life: human, microsomes; for microsomal CLint: read-out: Intrinsic clearance (Clint); for half-life: read-out: half-life (t1/2). The format is in vitro ADME, human.
A short description of data set [2]: in vitro. Conditions: RLM (male Sprague-Dawley) 0.50 mg/mL, NADPH 1 mM, 1 μM compound, pH 7.4, 37° C., 60 min; for microsomal CLint / half-life: rat, microsomes; for microsomal CLint: read-out: Intrinsic clearance (Clint); for half-life: read-out: half-life (t1/2). In kind it is in vitro ADME, rat. The source says: RLM Stability Pooled RLM from male Sprague-Dawley rats (Xenotech R1000) were used.

A short description of data set [3]: in vitro. In kind it is in vitro ADME, mouse. Conditions: MLM (male CD-1) 0.50 mg/mL, NADPH 1 mM, 1 μM compound, pH 7.4, 37° C., 60 min; for microsomal CLint / half-life: mouse, microsomes; for microsomal CLint: read-out: Intrinsic clearance (Clint); for half-life: read-out: half-life (t1/2). The source says:
MLM Stability Pooled MLM from male CD-1 mice (BIOIVT M00501) were used.

Chain of 5-HT2A receptor (P28223 whole entry): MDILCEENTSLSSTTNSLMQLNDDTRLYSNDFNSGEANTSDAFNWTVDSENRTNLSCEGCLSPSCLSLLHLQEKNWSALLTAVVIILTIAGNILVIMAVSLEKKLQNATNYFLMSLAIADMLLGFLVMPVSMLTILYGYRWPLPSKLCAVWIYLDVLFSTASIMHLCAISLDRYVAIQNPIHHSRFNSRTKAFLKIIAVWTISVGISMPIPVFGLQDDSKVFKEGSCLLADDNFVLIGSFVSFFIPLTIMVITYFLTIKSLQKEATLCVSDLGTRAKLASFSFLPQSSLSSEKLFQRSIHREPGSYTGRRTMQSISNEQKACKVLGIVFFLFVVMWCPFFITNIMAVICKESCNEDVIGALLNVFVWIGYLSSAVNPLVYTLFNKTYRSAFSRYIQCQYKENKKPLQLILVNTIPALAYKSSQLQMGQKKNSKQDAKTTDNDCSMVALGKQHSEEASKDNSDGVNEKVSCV

In the case of `CCN(CC)C(=O)[C@H]1C=C2c3cccc4[nH]cc(c34)C[C@H]2N(Cc2cccc(F)c2)C1` [Compound 52a, (6aR,9S)—N,N-diethyl-7-(3-fluorobenzyl)-4,6,6a,7,8,9-hexahydroindolo[4,3-fg]quinoline-9-carboxamide], on 5-HT2A receptor, the Ki (usually the equilibrium dissociation constant of an inhibitor or competing ligand from its target) is > 1230 nM.

Molecule `CCN(CC)C(=O)[C@H]1C=C2c3cccc4[nH]cc(c34)C[C@H]2N(Cc2ccc(F)c(F)c2)C1` [Compound 54a, (6aR,9S)-7-(3,4-difluorobenzyl)-N,N-diethyl-4,6,6a,7,8,9-hexahydroindolo[4,3-fg]quinoline-9-carboxamide] returned a Ki at 5-HT2A receptor of 289 nM.

For `[2H]C([2H])([2H])Oc1cccc(CN2C[C@H](C(=O)N(CC)CC)C=C3c4cccc5[nH]cc(c45)C[C@H]32)c1` [Compound 56, (6aR,9R)—N,N-diethyl-7-(3-(methoxy-d3)benzyl)-4,6,6,7,8,9-hexahydroindolo[4,3-fg]quinoline-9-carboxamide], the “Intrinsic clearance (Clint)” value in “in vitro [1]” is 113.3 µL/min/mg; in the data set “in vitro [2]” it was 224.5 µL/min/mg; in “in vitro [3]”, 223.3 µL/min/mg. The “half-life (t1/2)” value stood at 12.2 min in the data set “in vitro [1]”, 6.2 min in “in vitro [2]” and 6.2 min in the data set “in vitro [3]”.

In the case of `[2H]C([2H])(c1cccc(OC)c1)N1C[C@@H](C(=O)N(CC)CC)C=C2c3cccc4[nH]cc(c34)C[C@H]21` [Compound 68a, (6aR,9S)—N,N-diethyl-7-((3-methoxyphenyl)methyl-d2)-4,6,6a,7,8,9-hexahydroindolo[4,3-fg]quinoline-9-carboxamide], the Ki on 5-HT2A receptor was > 1230 nM.

Consider `CCN(CC)C(=O)[C@@H]1C=C2c3cccc4[nH]cc(c34)C[C@H]2N(Cc2cnco2)C1` [Compound 75, (6aR,9R)—N,N-diethyl-7-(oxazol-5-ylmethyl)-4,6,6a,7,8,9-hexahydroindolo[4,3-fg]quinoline-9-carboxamide], for which the microsomal CLint in the data set “in vitro [1]” stood at 35 µL/min/mg; in the data set “in vitro [2]”, 56.3 µL/min/mg; in the data set “in vitro [3]” it was 83.1 µL/min/mg. The half-life is 39.6 min in the data set “in vitro [1]”, 24.6 min in the data set “in vitro [2]” and 16.7 min in the data set “in vitro [3]”. The molecule also had a Ki at 5-HT2A receptor of 12.8 nM.

Consider `O=C([C@H]1C=C2c3cccc4[nH]cc(c34)C[C@H]2N(Cc2ccccc2)C1)N1CCCC1` [Compound 84a, ((6aR,9S)-7-benzyl-4,6,6a,7,8,9-hexahydroindolo[4,3-fg]quinolin-9-yl)(pyrrolidin-1-yl)methanone], for which the microsomal CLint is 154 µL/min/mg in the data set “in vitro [1]”, 257 µL/min/mg in “in vitro [2]” and 784 µL/min/mg in the data set “in vitro [3]”. For the same molecule, the half-life is 9 min in “in vitro [1]”, 5.4 min in the data set “in vitro [2]” and 1.8 min in “in vitro [3]”. In addition, at 5-HT2A receptor, the Ki was > 1230 nM.

`CCN(C)C(=O)[C@H]1C=C2c3cccc4[nH]cc(c34)C[C@H]2N(Cc2ccccc2)C1` [Compound 85a, (6aR,9S)-7-benzyl-N-ethyl-N-methyl-4,6,6a,7,8,9-hexahydroindolo[4,3-fg]quinoline-9-carboxamide]: the microsomal CLint in “in vitro [1]” amounted to 156 µL/min/mg; in the data set “in vitro [2]”, 400 µL/min/mg; in the data set “in vitro [3]”, 848 µL/min/mg. Moreover, the half-life is 8.9 min in the data set “in vitro [1]”, 3.5 min in “in vitro [2]” and 1.6 min in the data set “in vitro [3]”. At 5-HT2A receptor, this molecule gave a Ki of 516 nM.

At 5-HT2A receptor, `C[C@H]1C[C@H](C)N1C(=O)[C@H]1C=C2c3cccc4[nH]cc(c34)C[C@H]2N(Cc2ccccc2)C1` [Compound 87a, ((6aR,9S)-7-benzyl-4,6,6a,7,8,9-hexahydroindolo[4,3-fg]quinolin-9-yl)((2S,4S)-2,4-dimethylazetidin-1-yl)methanone] gave an inhibitory constant (Ki) of 1140 nM.

At 5-HT2A receptor, `COc1cccc(CN2C[C@H](C(=O)N3CCCC3)C=C3c4cccc5[nH]cc(c45)C[C@H]32)c1` [Compound 91, ((6aR,9R)-7-(3-methoxybenzyl)-4,6,6a,7,8,9-hexahydroindolo[4,3-fg]quinolin-9-yl)(pyrrolidin-1-yl)methanone] registered a Ki of 128 nM.

In the case of `COc1cccc(CN2C[C@@H](C(=O)N3CCCC3)C=C3c4cccc5[nH]cc(c45)C[C@H]32)c1` [Compound 91a, ((6aR,9S)-7-(3-methoxybenzyl)-4,6,6a,7,8,9-hexahydroindolo[4,3-fg]quinolin-9-yl)(pyrrolidin-1-yl)methanone], the Ki on 5-HT2A receptor was > 1230 nM.

On to `CCN(C)C(=O)[C@H]1C=C2c3cccc4[nH]cc(c34)C[C@H]2N(Cc2cccc(OC)c2)C1` [Compound 92a, (6aR,9S)—N-ethyl-7-(3-methoxybenzyl)-N-methyl-4,6,6a,7,8,9-hexahydroindolo[4,3-fg]quinoline-9-carboxamide], for which the inhibition constant Ki on 5-HT2A receptor was > 1230 nM.

Regarding `CCCN(CC)C(=O)[C@H]1C=C2c3cccc4[nH]cc(c34)C[C@H]2N(Cc2cccc(OC)c2)C1` [Compound 93a, (6aR,9S)—N-ethyl-7-(3-methoxybenzyl)-N-propyl-4,6,6a,7,8,9-hexahydroindolo[4,3-fg]quinoline-9-carboxamide], the Ki at 5-HT2A receptor was 230 nM.

In the case of `COc1cccc(CN2C[C@@H](C(=O)N3[C@@H](C)C[C@@H]3C)C=C3c4cccc5[nH]cc(c45)C[C@H]32)c1` [Compound 94a, ((2S,4S)-2,4-dimethylazetidin-1-yl)((6aR,9S)-7-(3-methoxybenzyl)-4,6,6a,7,8,9-hexahydroindolo[4,3-fg]quinolin-9-yl)methanone], at 5-HT2A receptor, the Ki worked out at 1210 nM.

For the molecule `CC[C@@H](C)NC(=O)[C@H]1C=C2c3cccc4[nH]cc(c34)C[C@H]2N(Cc2ccccc2)C1` [Compound 95a, (6aR,9S)-7-benzyl-N—((R)-sec-butyl)-4,6,6a,7,8,9-hexahydroindolo[4,3-fg]quinoline-9-carboxamide], the inhibition constant (Ki) at 5-HT2A receptor turned out to be 123 nM.

In turn, `[2H]C(c1cccc(OC)c1)N1C[C@H](C(=O)N(CC)CC)C=C2c3cccc4[nH]cc(c34)C[C@H]21` (stereo partly drawn) [Compound 96, (6aR,9R)—N,N-diethyl-7-((3-methoxyphenyl)methyl-d)-4,6,6a,7,8,9-hexahydroindolo[4,3-fg]quinoline-9-carboxamide] showed an inhibition constant (Ki) at 5-HT2A receptor of 3.99 nM. This Ki lies about 31-fold lower than the previous one.

On 5-HT2A receptor, `[2H]C(c1cccc(OC)c1)N1C[C@@H](C(=O)N(CC)CC)C=C2c3cccc4[nH]cc(c34)C[C@H]21` (stereo partly drawn) [Compound 96a, (6aR,9S)—N,N-diethyl-7-((3-methoxyphenyl)methyl-d)-4,6,6a,7,8,9-hexahydroindolo[4,3-fg]quinoline-9-carboxamide] displayed a Ki of 1000 nM.

Regarding `CCN(CC)C(=O)[C@H]1C=C2c3cccc4[nH]cc(c34)C[C@H]2N(Cc2cccc(C)c2)C1` [Compound 98a, (6aR,9S)—N,N-diethyl-7-(3-methylbenzyl)-4,6,6a,7,8,9-hexahydroindolo[4,3-fg]quinoline-9-carboxamide], the Ki on 5-HT2A receptor turned out to be 910 nM. The Ki values of the last two molecules are within 1.5-fold of each other.

Take `CCN(CC)C(=O)[C@H]1C=C2c3cccc4[nH]cc(c34)C[C@H]2N(Cc2ccccc2C)C1` [Compound 99a, (6aR,9S)—N,N-diethyl-7-(2-methylbenzyl)-4,6,6a,7,8,9-hexahydroindolo[4,3-fg]quinoline-9-carboxamide]: at 5-HT2A receptor, the affinity, expressed as Ki, was 802 nM.

Take `CCN(CC)C(=O)[C@H]1C=C2c3cccc4[nH]cc(c34)C[C@H]2N(Cc2ccc3ccccc3c2)C1` [Compound 100a, (6aR,9S)—N,N-diethyl-7-(naphthalen-2-ylmethyl)-4,6,6a,7,8,9-hexahydroindolo[4,3-fg]quinoline-9-carboxamide]: on 5-HT2A receptor, the Ki is > 1230 nM.

`CCN(CC)C(=O)[C@H]1C=C2c3cccc4[nH]cc(c34)C[C@H]2N(Cc2cccc3ccccc23)C1` [Compound 101a, (6aR,9S)—N,N-diethyl-7-(naphthalen-1-ylmethyl)-4,6,6a,7,8,9-hexahydroindolo[4,3-fg]quinoline-9-carboxamide] had a Ki at 5-HT2A receptor of 750 nM.

At 5-HT2A receptor, `CN(C)C(=O)[C@H]1C=C2c3cccc4[nH]cc(c34)C[C@H]2N(Cc2ccccc2)C1` [Compound 102a, (6aR,9S)-7-benzyl-N,N-dimethyl-4,6,6a,7,8,9-hexahydroindolo[4,3-fg]quinoline-9-carboxamide] displayed a Ki of 349 nM. Against the preceding molecule, the Ki is about 2.1-fold lower.

The molecule `CCN(C)C(=O)[C@H]1C=C2c3cccc4[nH]cc(c34)C[C@H]2N(CC2CCCC2)C1` [Compound 103a, (6aR,9S)-7-(cyclopentylmethyl)-N-ethyl-N-methyl-4,6,6a,7,8,9-hexahydroindolo[4,3-fg]quinoline-9-carboxamide] gave a Ki on 5-HT2A receptor of 511 nM.

On to `CN1C[C@H](C(=O)N2CCCC2)C=C2c3cccc4[nH]cc(c34)C[C@H]21` [Int22], for which, in “in vitro [1]”, the “Intrinsic clearance (Clint)” value was <9.6 µL/min/mg and the “half-life (t1/2)” value is reported as >145 min.
